Like-named read-outs stand apart in the source and are kept apart here.
Tests used:
chitinase = assay: Virulence factor production: chitinase activity of PAO-JP2 supernatant; format: cell-based, Pseudomonas aeruginosa; conditions: PAO-JP2, 70 nm OdDHL plus 3 μg/ml and 5 μg/ml furanone 56
Experimental: The chitinase activity assay was performed as described by the assay manufacturer (Loewe Biochemica, Sauerlach, Germany). Supernatant (560 μl) of cultures prepared as described for the elastase assay was mixed with carboxymethyl-chitin-remazol brilliant violet (200 μl) and sodium phosphate buffer (40 μl, 1 M, pH 7.5). The reaction mixture was incubated for 18 h at 40° C. in a waterbath. The reaction was stopped by addition of HCl (200 μl, 2 N) and kept for 15 min on ice. After centrifugation (10 min at 15000 rpm), the absorbance (OD550 nm) of the supernatant was measured. The relative chitinase activity was calculated as OD550 nm/OD600 nm normalized to 1 ml supernatant.

P. aeruginosa PAO1 = assay: Growth (optical density) of P. aeruginosa PAO1; format: cell-based, Pseudomonas aeruginosa
Experimental: (§1) AHL and furanone bioassay. Strains were grown exponentially in LB or ABt medium supplemented with 0.5% glucose at 30° C., shading at 250 rpm. At an optical density of approximately 0.8. the cultures were diluted and split into subcultures in glass culture flasks. AHLs and furanone 56 were added to appropriate concentrations and the cultures were further incubated at 30° C. under vigorous shaking. Culture samples were retrieved at various time intervals and green fluorescence was measured with a fluorometer (model RF-1501, Shimadzu, Tokyo, Japan) set at an excitation wavelength of 475 nm and emission wavelength of 515 nm. Relative fluorescence was calculated as green fluorescence normalized to 1 ml culture divided by the optical density (OD600 nm.
To determine if the furanone compound worked specifically on the las quorum sensor and not indirectly by disruption of primary metabolic functions, we followed growth as optical density of P. aeruginosa PAO1 in the presence of furanone 56. […] Further, we tested whether the furanone affected P. aeruginosa protein synthesis. The wild type P. aeruginosa PAO1 strain containing the consitutive Gfp-expression vector pMH306 was grown in the presence of furanone 56 at concentrations from 0 to 10 μ/ml. Gfp-expression (fluorescence/OD600 nm) was throughout the growth cycle unaffected by the presence of furanone compound (data not shown).

elastase = assay: Virulence factor production: elastase (proteolytic) activity of PAO-JP2 supernatant; format: cell-based, Pseudomonas aeruginosa; conditions: PAO-JP2, 70 nm OdDHL plus 3 μg/ml and 5 μg/ml furanone 56
Experimental: Measurements of virulence factors. PAO-JP2 was grown in LB medium at 37° C. and shaking at 250 rpm to an OD600 nm of 1.0. The culture was divided into seven subcultures, which were added 0, 70, or 1000 nm OdDHL and 0. 3. or 5 μg/ml furanone 58. The cultures were grown for an additional 4 hours at 37° C. The proteolytic activity was measured as described by Ayora & G{overscore (o)}tz (1994). Azocasein (250 μl 2%, Sigma, St. Louis, Mo.) in 50 mM Tris/HCl and steril-filtered (Ø 0.2 μm) supernatant (150 μl) were incubated for 4 h at […] After precipitation of undigested substrate with trichloroacetic acid (1.2 ml 10%) for 15 minutes, followed by 10 minutes centrifugation at 1000 rpm, NaOH (1.4 ml 1 M) were added to the supernatant. The relative protease activity was measured as the absorbance at 440 nm (OD440 nm) of the supernatant divided by the optical density of the culture (OD600 nm ).

E. coli MT102 = assay: Growth of E. coli MT102; format: cell-based, Escherichia coli; conditions: data not shown
Experimental: (§2) Effect of the furanone in a heterologous background. The direct regulation exerted by the las regulon on lasB expression is well described by numerous studies (Gambello & Iglewski, 1991: Pearson et al., 1994; Pearson et al., 1997). Regulatory complexity is added by the observation that the las quorum sensing circuit itself is subject to global regulators (Albus et al., 1997; Whiteley et al., 2000) and that lasB expression is also controlled by other regulators than LasR (Brumlik & Storey, 1992; Pesci et al., 1999; Schictman et al., 1995). It was, therefore, important to rule out that QSI effect, observed is not caused by furanone interaction with high levels of control. Since there is no AHL-based quorum sensing system present in Escherichia coli (Williams et al., 2000), this bacterium provides an unbiased and well-defined genetic background for studying the direct effects of the furanone on the P. aeruginosa las quorum sensing system. We repeated the above-described experiments using E. coli MT102 as a heterologous host for the reporter system. […] This is likely to be attributed to the increased copy number of the reporter plasmid.

[1] = test system: las quorum sensing system (lasB-gfp(ASV) Plac-lasR); assay: pMHLAS lasB-gfp(ASV) reporter in E. coli MT102; format: cell-based, Escherichia coli; conditions: E. coli MT102 host, data not shown
Experimental: as §1
Initially, the lasB-gfp(ASV) translational fusion (OdDHL sensor) was thoroughly characterized with respect to its sensitivity and specificity. A culture of E. coli hosting the pMHLAS monitor plasmid was diluted and spilt into several subcultures which were then supplemented with AHLs at concentrations ranging from 0 to 1000 nM. […] When the pMHLAS based reporter system was hosted by PAO-JP2. the OdDHL concentration required for half-maximal activation of the lasB-gfp(ASV) fusion was 8 nM (data not shown). In single copy on the chromosome of PAO-JP2, the OdDHL concentration on required for half-maximal activation of lasB expression was approximately 250 nM (FIG. 2b). Green fluorescent cells were visible by epifluorescence microscopy at a minimal OdDHL concentration of 50 nM (FIG. 2c).
as §2

Which chitinase activity (chitinase) does the source give for `O=C1C=C/C(=C/Br)O1` [furanone 56] here?
Its chitinase activity is “close to the uninduced level”.

And the “concentrations without effect on growth” value (P. aeruginosa PAO1)?
Its value is less than 10 µg/mL.

And the effect on growth (P. aeruginosa PAO1; PAO1, concentrations used for this study (up to 10 μg/ml))?
Its effect on growth is “no or only little effect on growth”.

What about the “concentrations without effect on growth” value (P. aeruginosa PAO1; listed as furanone) of the same molecule?
Its value is “below 10 μg/ml”.

What about the elastase activity (elastase) of the same molecule?
The elastase activity was “close to the uninduced level”.

And the effect on growth (E. coli MT102)?
Its effect on growth is “no effect on growth”.

And the “QSI activity / lasB promoter activity in heterologous E. coli background” value [1]?
Its value is “repressed lasB promoter activity”.

What about the “QSI activity / lasB promoter activity in heterologous E. coli background” value ([1]; listed as furanone) of the same molecule?
The value was “observed”.

Source: US20040147595A1, “Biofilm degrading or sloughing compositions and methods” (priority 2001, published 2004)
